# Key:
# Gram-positive = conditions: cited from earlier work
# Solubility in water = format: physicochemical
# Staphylococcus aureus = assay: Minimum inhibition concentration of prenilamine; format: cell-based
# Streptococcus mutans = assay: Minimum inhibition concentration of prenilamine; format: cell-based
# Streptococcus mitis = assay: Minimum inhibition concentration of prenilamine; format: cell-based
# Streptococcus pneumoniae = assay: Minimum inhibition concentration of prenilamine; format: cell-based
# [1] = test system: Lactobacillus acidophilus; assay: Minimum inhibition concentration of prenilamine; format: cell-based
# [2] = test system: Corynebacterium diphtherise; assay: Minimum inhibition concentration of prenilamine; format: cell-based
# [3] = test system: Streptococcus haemolyticus; assay: Minimum inhibition concentration of prenilamine; format: cell-based
# Candida albicans = assay: Minimum inhibition concentration of prenilamine; format: cell-based
# Staphylococcus epidermis = assay: Minimum inhibition concentration of prenilamine; format: cell-based
# Haemophilus influensae = assay: Minimum inhibition concentration of prenilamine; format: cell-based
# Listeria monocytogenes = assay: Minimum inhibition concentration of prenilamine; format: cell-based
# Neisseria pharingis = assay: Minimum inhibition concentration of prenilamine; format: cell-based
# Yeast = conditions: cited from earlier work
# Gram-negative = conditions: cited from earlier work
# Fungi = conditions: cited from earlier work
smiles,measurement,setting,value
"Oc1c(Cl)cc(Cl)c(Cl)c1Cc1c(O)c(Cl)cc(Cl)c1Cl [Hexachlorophene, 3,3',4,4',6,6'-hexachloro-2,2'-methylene-diphenoi]",Minimum Inhibition Concentration,Gram-positive,1—10 µg/ml
"CC(Cc1ccccc1)NCCC(c1ccccc1)c1ccccc1 (stereo not shown) [prenilamine, 3,3-diphenylpropyl-1-methylphenethylamine]",solubility in water,Solubility in water,do not dissolve well in water
same,MIC,Staphylococcus aureus,30 µg/mL
same,Nature of effect,Staphylococcus aureus,bactericide
same,MIC,Streptococcus mutans,5 µg/mL
same,Nature of effect,Streptococcus mutans,bactericide
same,MIC,Streptococcus mitis,5 µg/mL
same,Nature of effect,Streptococcus mitis,bactericide
same,MIC,Streptococcus pneumoniae,30 µg/mL
same,Nature of effect,Streptococcus pneumoniae,bactericide
same,MIC,[1],5 µg/mL
same,Nature of effect,[1],bactericide
same,MIC,[2],10 µg/mL
same,Nature of effect,[2],bactericide
same,MIC,[3],5 µg/mL
same,Nature of effect,[3],bactericide
same,MIC,Candida albicans,100 µg/mL
same,Nature of effect,Candida albicans,fungicide
same,MIC,Staphylococcus epidermis,30 µg/mL
same,Nature of effect,Staphylococcus epidermis,bactericide
same,MIC,Haemophilus influensae,60 µg/mL
same,Nature of effect,Haemophilus influensae,bactericide
same,MIC,Listeria monocytogenes,10 µg/mL
same,Nature of effect,Listeria monocytogenes,bactericide
same,MIC,Neisseria pharingis,20 µg/mL
same,Nature of effect,Neisseria pharingis,bactericide
O=C(OCc1ccccc1)c1ccc(O)cc1 [Benzyl paraben],Minimum Inhibition Concentration,Yeast,100 µg/mL
same,Minimum Inhibition Concentration,Gram-negative,200 µg/mL
same,Minimum Inhibition Concentration,Fungi,75 µg/mL
same,Minimum Inhibition Concentration,Gram-positive,50 µg/mL
"COC(=O)c1ccc(O)cc1 [Methyl paraben, p-hydroxybenzoic acid methylester]",Minimum Inhibition Concentration,Yeast,1000 µg/mL
same,Minimum Inhibition Concentration,Gram-negative,1000 µg/mL
same,Minimum Inhibition Concentration,Fungi,500 µg/mL
same,Minimum Inhibition Concentration,Gram-positive,800 µg/mL
